Measurements published in US10144914B2, “Modified substrates for protection of peptide-immobilized surfaces from gamma radiation degradation” (Corning Incorporated, priority 2010, dated 2018).
Values belong to the molecule of their own block, whether it stands above or below them.

Assays:
[1] = Solubility of individual coating components in water, ethanol and 1M HCl; type: physicochemical
Protocol: iii) Preparation of Antioxidant/Stabilizer Formulations: Prior to preparation of the antioxidant/stabilizer coating formulation, solubility of the individual components of each formulation was determined in water, ethanol and 1M HCl. Majority of the components were soluble in water, except for two in ethanol and one in 1M HCl. Both n-propyl gallate and Trolox were soluble in ethanol and only L-Tryptophan in 1M HCl. For each individual coating mixture formulation (i.e. Coatings 1-8), in a separate 25 mL glass vial containing the different components individually weighed out based on their respective wt % (see Table 1, below), Coating 1: 22 ml of solvent was used to make the coating solution (i.e. 20 mL of DI/water+2 ml of ethanol); Coating 2: 20 mL of DI/water added to vial; Coating 3: 18 mL of DI/water added+2 mL of ethanol to vial; Coating 4: 20 mL of DI/water+2 mL of ethanol; Coating 5: 16 mL of DI/water+4 mL of 1M HCl; Coating 6: 12 mL of DI/water+2 mL of ethanol+4 mL of 1M HCl; Coating 7: 20 mL of DI/water; Coating 8: 10 ml of DI/water+4 ml of ethanol+5 ml of 1M HCl.

[2] = tested on: H7 cells; assay: Crystal violet staining of H7 cells on gamma sterilized VN peptide acrylate surface, amino acid blocking; type: cell-based, human; conditions: gamma irradiated; for H7 attachment and growth (crystal violet staining): used as blocking reagent after peptide conjugation
From the text: (§1) Acrylate coating: 2-Hydroxyethyl methacryalte, 2-carboxyethyl acrylate, tetra(ethylene glycol) dimethacrylate, Darocur 1173, Irgacure 819 were mixed with ratio of 80:20:3:3:0.1 and dissolved in ethanol at total monomer concentration of 5%. The obtained formulation was spin coated on oxygen plasma treated Zeonor film. After ethanol evaporated, the (meth)acrylate coating was cured using Xenon pulsed UV curing system in nitrogen purged box. Then, the coated films were in-mold-labeled into T-75 Zeonor flasks and used for conjugation directly.
(§2) Peptide conjugation: The acrylate surface was activated for an hour with 1:1 EDC: NHS in DMF. After aspiration of the activation solution, the surface was treated for an hour with 1 mM of the VN peptide (Ac-[…]) (SEQ ID NO:1) in phosphate buffer (pH7.4). After aspiration of the peptide solution, the surface was treated for an hour with 1M ethanolamine adjusted to pH 8.0-8.5 with hydrochloric acid or 0.1M of L-methionine methyl ester hydrochloride adjusted to pH 8 with sodium hydroxide based on experimental design. All reactions were performed at room temperature.
Sterilization: Flasks were packed with nitrogen and desiccant in aluminum pouch for Gamma sterilization. The irradiation dose was 11-18 kGy. Positive control VN-peptide acrylate sample was sanitized with 70% ethanol.
Stem cell culture: H7 cells were sub-cultured into T-75 fasks with desired peptide acrylate surfaces or Matrigel™ coated surfaces (positive control) at the density of 100,000 cell/cm^2 in X-VIVO 10+GF medium. Microscopic examination of cell and colony morphology was performed at day 3 or day 4. Cell number was assessed at day 4 or day 5 by harvesting with collagenase IV/EDTA treatment followed by cell counting with automated cell number/viability analyzer, Vi-Cell (Beckman Coulter). For methionine methyl ester treated surface, a step of rinsing with DPBS was applied to remove amino acid extractables before cell culture.

[3] = tested on: H7 cells; assay: H7 cell count and morphology on gamma sterilized VN peptide acrylate surface after amino acid absorption; type: cell-based, human; conditions: 0.1M absorbed 1 hr, gamma 11-18 kGy
From the text: as §1, §2
Amino acid absorption: Peptide conjugated T-75 flask was filled with 10 mL of 0.1M of L-methionine methyl ester hydrochloride adjusted to pH 8 with sodium hydroxide. The flasks were lay flat so that the peptide surfaces were submerged under the amino acid solution and were incubated for 1 hr. This allows positive charged amino acid to be absorbed into negative charged peptide-acrylate coating. Then the amino acid solution was removed and the flasks were dried in vacuum for overnight before packing and sterilization. […]
Stem cell culture: H7 cells were sub-cultured into T-75 fasks with desired peptide acrylate surfaces or Matrigel™ coated surfaces (positive control) at the density of 100,000 cell/cm^2 in X-VIVO 10+GF medium. […] Cell number was assessed at day 4 or day 5 by harvesting with collagenase IV/EDTA treatment followed by cell counting with automated cell number/viability analyzer, Vi-Cell (Beckman Coulter). […]

[4] = Solubility of VN peptide in ethanol; type: physicochemical; conditions: 100% 200-proof ethanol, 0.5 mM or 1 mM, after agitation
Protocol: iii) Preparation of VN peptide coating solution: A 10 mL 0.5 mM or 1 mM VN coating solution was prepared by weighing out their corresponding masses and dissolving using a 100% 200-proof ethanol as the solvent.

Molecule: Cc1c(C)c2c(c(C)c1O)CCC(C)(C(=O)O)O2 (stereo not shown) [Trolox]
solubility in ethanol [1]: soluble

Molecule: NCCO [ethanolamine, reference compound]
H7 attachment and growth (crystal violet staining) [2]: there were not cells attached or grew

Molecule: COC(=O)[C@@H](N)CCSC.Cl [methionine methyl ester, L-methionine methyl ester hydrochloride]
bioactivity of VN-peptide acrylate surface after Gamma irradiation [3]: maintained
stem cell morphology versus positive control [3]: comparable
cell number after 4 days of culture versus ETOH ctr and Matrigel ([3]; day 4): comparable
H7 attachment and growth (crystal violet staining) [2]: still support good H7 attachment and growth
cell morphology versus ethanol sanitized surfaces ([2]; used as blocking reagent): still not able to much those on ethanol sanitized surfaces

Molecule: Ac-KGGPQVTRGDVFTMP-NH2 (C-terminus assumed) [VN peptide]
solubility in the ethanol solvent [4]: partial to almost completely soluble

Results, then the molecule that gave them:

solubility in 1M HCl ([1]; 1M HCl): soluble
Molecule: N[C@@H](Cc1c[nH]c2ccccc12)C(=O)O [L-Tryptophan]

solubility in ethanol [1]: soluble
Molecule: CCCOC(=O)c1cc(O)c(O)c(O)c1 [n-propyl gallate]
